Where two headings read alike, the source gives them in different places. Starred links: 1 amine or outer side, 2 acyl side, 3 side chain; linkers in the order of their positions; H or OH if unused. Non-standard residues stand in square brackets, D forms with d. Groups on a side chain read outwards from the residue. *: point of attachment. C18 diacid = O=C(O)CCCCCCCCCCCCCCCCC(=O)*; αMePhe(2-F) = C[C@](N)(Cc1ccccc1F)C(=O)O; γGlu = O=C(O)[C@H](CCC(=O)[*:2])N[*:1]; αMe4Pal = C[C@](N)(Cc1ccncc1)C(=O)O; αMeY = C[C@](N)(Cc1ccc(O)cc1)C(=O)O; 4Pal = N[C@@H](Cc1ccncc1)C(=O)O; αMeL = CC(C)C[C@](C)(N)C(=O)O; αMeS = C[C@](N)(CO)C(=O)O; Orn = NCCC[C@H](N)C(=O)O; AEEA = NCCOCCOCC(=O)O; Aib = CC(C)(N)C(=O)O
What was measured:
hGIPR [1] = target: T1, hGIPR (Homo sapiens, UniProt P48546); test: Functional cAMP activity in the presence of 1% HSA; assay type: cell-based; settings: read-out: cAMP Rel EC50, hGIPR
T1 sequence (P48546 22-466): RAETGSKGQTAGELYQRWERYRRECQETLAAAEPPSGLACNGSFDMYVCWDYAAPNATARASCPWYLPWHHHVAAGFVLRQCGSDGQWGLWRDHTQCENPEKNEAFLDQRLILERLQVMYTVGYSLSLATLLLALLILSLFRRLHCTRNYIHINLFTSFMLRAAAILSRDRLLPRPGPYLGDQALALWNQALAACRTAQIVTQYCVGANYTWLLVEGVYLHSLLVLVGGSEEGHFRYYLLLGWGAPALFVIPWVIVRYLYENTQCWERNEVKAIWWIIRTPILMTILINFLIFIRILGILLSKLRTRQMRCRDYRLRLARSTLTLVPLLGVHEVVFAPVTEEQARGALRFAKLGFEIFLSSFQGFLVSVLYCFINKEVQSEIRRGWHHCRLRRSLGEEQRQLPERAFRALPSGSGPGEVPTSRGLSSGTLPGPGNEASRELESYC

hGLP-1R [2] = target: T2, hGLP-1R (Homo sapiens, UniProt P43220); test: Functional cAMP activity in the presence of 1% HSA; assay type: cell-based; settings: read-out: cAMP Rel EC50, hGLP-1R
T2 sequence (P43220 24-463): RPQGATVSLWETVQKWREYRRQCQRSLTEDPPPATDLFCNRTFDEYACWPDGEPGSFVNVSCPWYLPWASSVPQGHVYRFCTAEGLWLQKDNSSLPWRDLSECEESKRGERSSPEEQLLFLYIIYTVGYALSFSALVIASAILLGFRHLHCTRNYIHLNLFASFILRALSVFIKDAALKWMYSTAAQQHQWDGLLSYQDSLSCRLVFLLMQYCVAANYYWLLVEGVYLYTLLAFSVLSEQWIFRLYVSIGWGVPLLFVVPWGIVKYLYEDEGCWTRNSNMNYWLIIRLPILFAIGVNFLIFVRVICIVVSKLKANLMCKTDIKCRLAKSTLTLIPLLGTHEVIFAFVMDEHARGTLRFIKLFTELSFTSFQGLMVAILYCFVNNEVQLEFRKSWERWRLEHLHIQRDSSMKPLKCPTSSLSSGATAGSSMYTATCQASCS

human GcgR = human GcgR (Homo sapiens, UniProt P47871); test: Functional cAMP activity in the presence of 1% HSA; assay type: cell-based; settings: read-out: cAMP Rel EC50, hGcgR
human GcgR, sequence (P47871 26-477): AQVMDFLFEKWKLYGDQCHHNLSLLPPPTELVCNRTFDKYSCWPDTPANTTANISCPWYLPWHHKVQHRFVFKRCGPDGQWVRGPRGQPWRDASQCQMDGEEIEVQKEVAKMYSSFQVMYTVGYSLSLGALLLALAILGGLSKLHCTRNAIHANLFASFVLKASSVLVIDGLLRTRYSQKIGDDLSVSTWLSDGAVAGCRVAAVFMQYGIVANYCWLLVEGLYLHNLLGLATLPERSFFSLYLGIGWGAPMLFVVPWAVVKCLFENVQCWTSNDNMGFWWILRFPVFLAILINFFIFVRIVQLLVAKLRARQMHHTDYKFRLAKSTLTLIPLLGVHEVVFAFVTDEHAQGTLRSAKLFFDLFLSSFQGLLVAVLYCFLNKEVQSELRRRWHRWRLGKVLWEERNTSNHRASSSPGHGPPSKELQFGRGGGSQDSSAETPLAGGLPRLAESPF

hGIPR [3] = target: T1, hGIPR; test: Functional cAMP activation in the presence of 0.1% casein (no HSA); assay type: cell-based; settings: read-out: Relative cAMP EC50, hGIPR;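 on Relative cAMP EC50, hGIPR: intracellular cAMP rise after 30 min at 37 °C read by HTRF against a standard curve, scaled between buffer alone (0%) and top control ligand concentration (100%), four-parameter fit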;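 on Relative cAMP EC50, hGLP-1R: intracellular cAMP rise after 30 min at 37 °C read by HTRF, normalized between buffer only (0%) and maximal control ligand (100%), four-parameter variable-slope fit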;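 on Relative cAMP EC50, hGcgR: intracellular cAMP rise after 30 min at 37 °C, read by HTRF against a cAMP standard curve, scaled from buffer only (0%) to maximal control ligand response (100%)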
hGLP-1R [4] = target: T2, hGLP-1R; test: as above; assay type: cell-based; settings: read-out: Relative cAMP EC50, hGLP-1R
hGcgR = hGcgR (Homo sapiens, UniProt P47871); test: as above; assay type: cell-based; settings: read-out: Relative cAMP EC50, hGcgR;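 further: intracellular cAMP rise after 30 min at 37 °C, read by HTRF against a cAMP standard curve, scaled from buffer only (0%) to maximal control ligand response (100%)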
hGcgR, sequence (P47871 26-477): as above

[5] = system: Intestinal organoid from Göttingen minipig jejunum tissue, 2D monolayer; test: Cell based in vitro permeability (Papp) assay; assay type: in vitro ADME
Method in brief: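 2D monolayers derived from Göttingen minipig jejunal organoids on transwell inserts. Basal samples collected at 20 min in the presence of C10. Peptide in apical and basal compartments quantified by LC/MS to give Papp.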

[6] = Pepsin stability assay in simulated gastric fluid; assay type: in vitro ADME; settings: pH 1.2, % Intact (SD)
Description: A pepsin stability assay is utilized to determine the relative stability of Example polypeptides in a simulated gastric proteolytic environment. […] The relative amount of intact peptide is quantified by mass spectrometry (MS). […] The examples were dissolved in 50 mM Tris buffer pH 8.0 at a concentration of 10 mg/mL as a stock solution. Pepsin A was reconstituted in SGF at 10 mg/mL. […] The example peptide and pepsin solutions were then incubated at 37° C. in a shaking incubator set at 100 rpm. Samples (25 μL) were withdrawn at different time intervals and quenched with 100 mM ammonium bicarbonate pH 9 (50 μL) to stop proteolytic activity. All samples were centrifuged, and the supernatants were analyzed by LC/MS to determine the remaining intact peptide.

in vivo [7] = test: in vivo; design: species or system cynomolgus monkeys; settings: both sexes, cynomolgus monkey, iv, 10 nmol/kg
Description: (§1) A study is designed to evaluate the oral bioavailability of Example polypeptides in cynomolgus monkeys. […] Standards and controls are prepared in cynomolgus monkey plasma, and any dilutions required to bring samples into the quantitative range are also performed in control cynomolgus monkey plasma. To control assay variability, an internal standard (IS) is added to all the standards and samples. The Examples and IS are extracted from 100% monkey plasma (50 μL) by protein precipitation using isopropyl alcohol and methanol (50:50 v/v). The samples are then centrifuged (3000 rpm for 10 minutes) and the supernatant is transferred to a Siricco Protein Precipitation Plate. The samples are loaded on a Sep-Pak tC18 SPE microelution plate that is conditioned with 2% formic acid in acetonitrile and water. The compounds are then washed with 2% formic acid in water and eluted using 2% formic acid in acetonitrile into a plate containing 5× Invitrosol and 1% formic acid in water prior to injecting an aliquot (10 μL) on to Xselect CSH C18, 3.5 μm, 2.1×20 mm for LC/MS analysis.
Blood samples are collected over 504 hours. Plasma is harvested from blood samples by centrifugation and stored frozen (−70° C.) until analysis. Plasma concentrations of the molecules are detected using the bioanalytical method described above.

in vivo [8] = test: in vivo; design: species or system cynomolgus monkeys; settings: both sexes, cynomolgus monkey, po; for bioavailability: 10 mg; for AUC(0-inf) / CL/F / Cmax / Tmax / half-life: 300 mg
Description: as §1
[…] Blood samples are collected up to 504 hours post-dose. Plasma is harvested from blood samples by centrifugation and stored frozen (−70° C.) until analysis. Plasma concentrations of the molecules are detected using the bioanalytical method described above.

human GLP1-R = human GLP1-R (Homo sapiens, UniProt P43220); test: GLP1-R internalization assay in HEK293 cells; assay type: cell-based
human GLP1-R, sequence (P43220 24-463): as the sequence (P43220 24-463) above

[9] = Body weight in diet-induced obese C57BL/6 mice; assay type: in vivo; settings: 10 nmol/kg SC QD, 7 days, percent of starting weight, DIO mice, mean ± SEM n=5
Method in brief: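 Male C57BL/6 DIO mice (41-50 g, 5 per group, randomized by weight) on calorie-rich diet received subcutaneous doses 30-90 min before dark onset, QD or Q3D for 9-16 days. Body weight measured daily, expressed as percent of starting weight, mean±SEM.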

[10] = in the presence of 0.1% casein (no HSA), geometric mean

Row | Molecule | EC50 (hGIPR [1]) [nM] | EC50 (hGLP-1R [2]) [nM] | EC50 (human GcgR) [nM] | EC50 (hGIPR [3]) [pM] | EC50 (hGLP-1R [4]) [nM] | EC50 (hGcgR) [nM] | remaining at 0.25 h, 0.4 mg/mL [6] [%] | remaining at 0.5 h, 0.4 mg/mL [6] [%] | remaining at 1 h, 0.4 mg/mL [6] [%] | also measured
1 | H-Y[Aib]QGT[αMePhe(2-F)]TSD[4Pal][αMeS]I[αMeL]LD[Orn]K([γGlu-γGlu-C18 diacid])AQ[αMe4Pal]EFI[dE][αMeY]LVEGGPSSGAPPPSGS-NH2 [Example 696] | 0.53 | 19.1 | 173 | 6.88 | 0.233 | 1.75 | 102 | 107 |  | Relative Papp (Compared to internal standard) [5]: 0.77
2 | H-Y[Aib]QGTFTSD[4Pal]SQ[αMeL]LDKK([γGlu-γGlu-C18 diacid])AQ[αMe4Pal]AFIEYLIAGGPSSGAPPPSGE-NH2 [Example 883] | 9.41 | 120 | 578 |  |  |  |  |  |  | EC50 (hGIPR [3]; [10]): 77.9 pM; EC50 (hGLP-1R [4]; [10]): 1.05 nM; EC50 (hGcgR; [10]): 4.02 nM; AUC(0-inf) (in vivo [7]): 8.69 ± 0.623 µM·h; clearance (in vivo [7]): 1.15 mL/h/kg; half-life (in vivo [7]): 2.62 ± 2.25 days; bioavailability (in vivo [8]): 0.3%; AUC(0-inf) (in vivo [8]): 1.28 µM·h; CL/F (in vivo [8]): 11.1 mL/min/kg; Cmax (in vivo [8]): 43.6 nM; Tmax (in vivo [8]): 2 h; half-life (in vivo [8]): 1740 min; EC50 (human GLP1-R; HEK293 cells expressing SNAP-GLP-1R, read-out: GLP1R Internalization EC50): 23.9 nM; Internalization % TOP (human GLP1-R; normalized to maximum concentration of GLP-1 (100%)): 77.1%
3 | CC[C@H](C)[C@H](NC(=O)[C@H](CC(C)C)NC(=O)[C@](C)(Cc1ccc(O)cc1)NC(=O)[C@@H](CCC(=O)O)NC(=O)[C@@H](NC(=O)[C@H](Cc1ccccc1)NC(=O)[C@H](CCC(=O)O)NC(=O)[C@](C)(Cc1ccncc1)NC(=O)[C@H](CCC(N)=O)NC(=O)[C@H](C)NC(=O)[C@H](CCCCNC(=O)CC[C@H](NC(=O)CC[C@H](NC(=O)CCCCCCCCCCCCCCCCC(=O)O)C(=O)O)C(=O)O)NC(=O)[C@H](CCCN)NC(=O)[C@H](CC(=O)O)NC(=O)[C@H](CC(C)C)NC(=O)[C@](C)(CC(C)C)NC(=O)[C@@H](NC(=O)[C@](C)(CO)NC(=O)[C@H](Cc1ccncc1)NC(=O)[C@H](CC(=O)O)NC(=O)[C@H](CO)NC(=O)[C@@H](NC(=O)[C@](C)(Cc1ccccc1F)NC(=O)[C@@H](NC(=O)CNC(=O)[C@H](CCC(N)=O)NC(=O)C(C)(C)NC(=O)[C@@H](N)Cc1ccc(O)cc1)[C@@H](C)O)[C@@H](C)O)[C@@H](C)CC)[C@@H](C)CC)C(=O)N[C@@H](CCC(=O)O)C(=O)NCC(=O)NCC(=O)N1CCC[C@H]1C(=O)N[C@@H](CO)C(=O)N[C@@H](CO)C(=O)NCC(=O)N[C@@H](C)C(=O)N1CCC[C@H]1C(=O)N1CCC[C@H]1C(=O)N1CCC[C@H]1C(=O)N[C@@H](CO)C(=O)NCC(=O)N[C@@H](CO)C(N)=O [Example 700] | 0.397 | 20 | 132 | 7.58 | 0.245 | 1.31 | 89.9 | 106 | 98.9 | Body weight (%) [9]: 75.9 ± 3.77 %; Relative Papp (Compared to internal standard) [5]: 0.29
4 | H-Y[Aib]QGTFTSD[4Pal]SQ[αMeL]LD[Orn]K([γGlu-γGlu-C18 diacid])AQ[αMe4Pal]AFIE[αMeY]LIEGGPSSGEPPPSGSEE-NH2 [Example 1027] | 58.1 | 252 | 1470 |  |  |  |  |  |  | EC50 (hGIPR [3]; [10]): 208 pM; EC50 (hGLP-1R [4]; [10]): 1.23 nM; EC50 (hGcgR; [10]): 4.99 nM; AUC(0-inf) (in vivo [7]): 8.57 ± 1.55 µM·h; clearance (in vivo [7]): 1.2 mL/h/kg; half-life (in vivo [7]): 3.18 ± 1.31 days; bioavailability (in vivo [8]): 1.2%; AUC(0-inf) (in vivo [8]): 5.07 µM·h; CL/F (in vivo [8]): 2.77 mL/min/kg; Cmax (in vivo [8]): 135 nM; Tmax (in vivo [8]): 2.5 h; half-life (in vivo [8]): 3340 min
5 | H-Y[Aib]QGT[αMePhe(2-F)]TSD[4Pal][αMeS]I[αMeL]LD[Orn]K([AEEA-γGlu-C18 diacid])AQ[αMe4Pal]EFI[dE][αMeY]LIEGGPSSGAPPPSGTGE-NH2 [Example 714] | 0.754 | 33.2 | 197 | 7.64 | 0.289 | 1.76 | 99.2 | 102 | 96.9 | 
6 | H-Y[Aib]QGT[αMePhe(2-F)]TSD[4Pal]SI[αMeL]LD[Orn]K([AEEA-γGlu-C18 diacid])AQ[αMe4Pal][Orn]FIE[αMeY]LIEGGPSSGEPPPEGT-NH2 [Example 505] | 2.1 | 39 | 92 | 7.07 | 0.205 | 0.445 | 91.6 | 78.9 | 53.5 | 
7 | H-Y[Aib]QGT[αMePhe(2-F)]TSD[4Pal][αMeS]I[αMeL]LD[Orn]K([AEEA-γGlu-C18 diacid])AQ[αMe4Pal]EFI[dE][αMeY]LVEGGPSSGEPPPSGS-NH2 [Example 733] | 1.15 | 34.3 | 207 | 8.94 | 0.293 | 1.6 | 109 | 107 | 110 | 
